Experiment [1] deals with T1, Human vitronectin receptor (αvβ3) (Homo sapiens, UniProt P05106+P06756).
T1 construct: Human vitronectin receptor (αvβ3) was purified from human placenta; from tissue; host or cells: human placenta
Kind of experiment: Vitronectin adhesion assay (solid phase receptor assay, competition with biotinylated vitronectin). It counts as binding. The protocol:
VITRONECTIN ADHESION ASSAY
Human vitronectin receptor (αvβ3) was purified from human placenta as previously described [Pytela et al., Methods in Enzymology, 144:475-489 (1987)]. Human vitronectin was purified from fresh frozen plasma as previously described [Yatohgo et al., Cell Structure and Function, 13:281-292 (1988)]. Biotinylated human vitronectin was prepared by coupling NHS-biotin from Pierce Chemical Company (Rockford, IL) to purified vitronectin as previously described [Charo et al., J. Biol. Chem., 266(3):1415-1421 (1991)]. Assay buffer, OPD substrate tablets, and RIA grade BSA were obtained from Sigma (St. Louis, MO). Anti-biotin antibody was obtained from Calbiochem (La Jolla, CA). Linbro microtiter plates were obtained from Flow Labs (McLean, VA). ADP reagent was obtained from Sigma (St. Louis, MO).
This assay was essentially the same as previously reported [Niiya et al., Blood, 70:475-483 (1987)]. The purified human vitronectin receptor (αvβ3) was diluted from stock solutions to 1.0 µg/mL in Tris-buffered saline containing 1.0 mM Ca^++, Mg^++, and Mn^++, pH 7.4 (TBS^+++). The diluted receptor was immediately transferred to Linbro microtiter plates at 100 µL/well (100 ng receptor/well). The plates were sealed and incubated overnight at 4°C to allow the receptor to bind to the wells. All remaining steps were at room temperature. The assay plates were emptied and 200 µL of 1% RIA grade BSA in TBS^+++ (TBS^+++/BSA) were added to block exposed plastic surfaces. Following a 2 hour incubation, the assay plates were washed with TBS^+++ using a 96 well plate washer. Logarithmic serial dilution of the test compound and controls were made starting at a stock concentration of 2 mM and using 2 nM biotinylated vitronectin in TBS^+++/BSA as the diluent. This premixing of labeled ligand with test (or control) ligand, and subsequent transfer of 50 µL aliquots to the assay plate was carried out with a CETUS Propette robot; the final concentration of the labeled ligand was 1 nM and the highest concentration of test compound was 1.0 x 10^-4 M. The competition occurred for two hours after which all wells were washed with a plate washer as before. Affinity purified horseradish peroxidase labeled goat anti-biotin antibody was diluted 1:3000 in TBS^+++/BSA and 125 µL were added to each well. After 30 minutes, the plates were washed and incubated with OPD/H2O2 substrate in 100 mM/L Citrate buffer, pH 5.0. The plate was read with a microtiter plate reader at a wavelength of 450 nm and when the maximum-binding control wells reached an absorbance of about 1.0, the final A450 were recorded for analysis. The data were analyzed using a macro written for use with the EXCEL™ spreadsheet program. The mean, standard deviation, and %CV were determined for duplicate concentrations. The mean A450 values were normalized to the mean of four maximum-binding controls (no competitor added)(B-MAX). The normalized values were subjected to a four parameter curve fit algorithm [Rodbard et al., Int.

The target of experiment [2] is T2, Human fibrinogen receptor (αIIbβ3) (Homo sapiens, UniProt P05106+P08514).
T2 construct: Human fibrinogen receptor (αIIbβ3) was purified from outdated platelets; from tissue; host or cells: outdated (human) platelets
Put plainly: Purified IIb/IIIa receptor assay (solid phase receptor assay, competition with biotinylated vitronectin). It counts as binding. The settings on record: purified receptor from outdated platelets; 1 nM biotinylated vitronectin; highest concentration tested 1.0 x 10^-4 M. The text has this:
PURIFIED IIb/IIIa RECEPTOR ASSAY
Human fibrinogen receptor (αIIbβ3) was purified from outdated platelets. (Pytela, R., Pierschbacher, M.D., Argraves, S., Suzuki, S., and Rouslahti, E. "Arginine-Glycine-Aspartic acid adhesion receptors", Methods in Enzymology 144(1987):475-489.) Human vitronectin was purified from fresh frozen plasma as described in Yatohgo, T., Izumi, M., Kashiwagi, H., and Hayashi, M., "Novel purification of vitronectin from human plasma by heparin affinity chromatography," Cell Structure and Function 13(1988):281-292. Biotinylated human vitronectin was prepared by coupling NHS-biotin from Pierce Chemical Company (Rockford, IL) to purified vitronectin as previously described. (Charo, I.F., Nannizzi, L., Phillips, D.R., Hsu, M.A., Scarborough, R.M., "Inhibition of fibrinogen binding to GP IIb/IIIa by a GP IIIa peptide", J. Biol. Chem. 266(3)(1991): 1415-1421.) Assay buffer, OPD substrate tablets, and RIA grade BSA were obtained from Sigma (St. Louis, MO). Anti-biotin antibody was obtained from Calbiochem (La Jolla, CA). Linbro microtiter plates were obtained from Flow Labs (McLean, VA). ADP reagent was obtained from Sigma (St. Louis, MO).
This assay is essentially the same reported in Niiya, K., Hodson, E., Bader, R., Byers-Ward, V. Koziol, J.A., Plow, E.F. and Ruggeri, Z.M., "Increased surface expression of the membrane glycoprotein IIb/IIIa complex induced by platelet activation: Relationships to the binding of fibrinogen and platelet aggregation", Blood 70(1987):475-483. The purified human fibrinogen receptor (αIIbβ3) was diluted from stock solutions to 1.0 µg/mL in Tris-buffered saline containing 1.0 mM Ca^++, Mg^++, and Mn^++, pH 7.4 (TBS^+++). The diluted receptor was immediately transferred to Linbro microtiter plates at 100 µL/well (100 ng receptor/well). The plates were sealed and incubated overnight at 4°C to allow the receptor to bind to the wells. All remaining steps were at room temperature. The assay plates were emptied and 200 µL of 1% RIA grade BSA in TBS^+++ (TBS^+++/BSA) were added to block exposed plastic surfaces. Following a 2 hour incubation, the assay plates were washed with TBS^+++ using a 96 well plate washer. Logarithmic serial dilution of the test compound and controls were made starting at a stock concentration of 2 mM and using 2 nM biotinylated vitronectin in TBS^+++/BSA as the diluent. This premixing of labeled ligand with test (or control) ligand, and subsequent transfer of 50 µL aliquots to the assay plate was carried out with a CETUS Propette robot; the final concentration of the labeled ligand was 1 nM and the highest concentration of test compound was 1.0 x 10^-4 M. The competition occurred for two hours after which all wells were washed with a plate washer as before. Affinity purified horseradish peroxidase labeled goat anti-biotin antibody was diluted 1:3000 in TBS^+++/BSA and 125 µL were added to each well. After 30 minutes, the plates were washed and incubated with […] substrate in 100 mM/L citrate buffer, pH 5.0. The plate was read with a microtiter plate reader at a wavelength of 450 nm and when the maximum-binding control wells reached an absorbance of about 1.0, the final A450 were recorded for analysis. The data were analyzed using a macro written for use with the EXCEL™ spreadsheet program. The mean, standard deviation, and %CV were determined for duplicate concentrations. The mean A450 values were normalized to the mean of four maximum-binding controls (no competitor added)(B-MAX). The normalized values were subjected to a four parameter curve fit algorithm, [Robard et al., Int. […]

[3] abbreviates: purified receptor from human placenta, 1 nM biotinylated vitronectin, highest concentration tested 1.0 x 10^-4 M, read-out: AvB3 IC50.
[4] abbreviates: read-out: AvB3 IC50, purified receptor from human placenta, 1 nM biotinylated vitronectin, highest concentration tested 1.0 x 10^-4 M.

Counter-ions that a name gives are not always drawn. Like-named read-outs stand apart in the source and are kept apart here.

As for `CC(C)(C)OC(=O)NC(Cc1ccc(NC(=O)c2cccc(N=C(N)N)c2)cc1)C(=O)O` (stereo not drawn) [Example 55, 4-[[[3-[(aminoiminomethyl)amino]phenyl]carbonyl]amino]-N-[(1,1-dimethylethoxy)carbonyl]-phenylalanine, monohydrate trifluoroacetate salt], the IC50 in experiment [1] (setting [3]) came out at 0.51 nM; in experiment [2], 14.3 nM.

As for `CC(C)CC(=O)NC(Cc1ccc(NC(=O)c2cccc(NC(=N)N)c2)cc1)C(=O)O` (stereo not drawn) [Example 106, 4-[[[3-[(aminoiminomethyl]amino]phenyl]-carbonyl]amino]-N-[(3-methyl-1-oxobutyl)-phenylalanine, bis(trifluoroacetate) salt], the IC50 was 5 nM in experiment [1] and 77 nM in experiment [2].

On to `O=C(Nc1ccc(CC(NS(=O)(=O)c2ccccc2)C(=O)O)cc1)c1cccc(NC2=NCCN2)c1` (stereo not drawn) [Example 112, 4-[[[3-[(4,5-dihydro-1H-imidazol-2-yl)amino]phenyl]-carbonyl]amino-N-(phenylsulfonyl)phenylalanine, trifluoroacetate salt], for which the IC50 in experiment [1] (setting [3]) was found to be 0.3 nM; in experiment [2] it was 13 nM.

On to `N=C(N)Nc1cccc(C(=O)Nc2ccc(C(CC(=O)O)c3ccccc3)cc2)c1` (stereo not drawn) [Example 33, 4-[[[3-[(aminoiminomethyl)amino]phenyl]carbonyl]amino]-β-phenylbenzenepropanoic acid, trifluoroacetate salt], for which the results for the IC50 in experiment [1] (setting [3]) and in experiment [2] were 73.6 nM and 7.37 nM, respectively.

Turning to `CC(C)(C)OC(=O)CCc1ccc(CCNC(=O)c2cccc(NC(=N)N)c2)cc1` [Example 58, monohydrate trifluoroacetate salt], the IC50 came out at 48400 nM in experiment [1] (setting [4]) and 57200 nM in experiment [2].

Consider `CCOC(=O)C(Cc1ccc(NC(=O)c2cccc(NC(=N)N)c2)cc1)NC(C)=O` (stereo not drawn) [Example 34, N-acetyl-4-[[[3-[(aminoiminomethyl)amino]phenyl)carbonyl]amino]phenylalanine ethyl ester, trifluoroacetate salt], for which the IC50 turned out to be 45.2 nM in experiment [1] (setting [3]) and 2200 nM in experiment [2].

Take `NC(N)=Nc1cccc(C(=O)Nc2ccc(CCC(=O)O)cc2)c1` [Example 64, 4-[[[3-[(aminoiminomethyl)amino]phenyl]carbonyl]amino]benzenepropanoic acid, hydrochloride]: the IC50 was 21.2 nM in experiment [1] (setting [3]) and 93.1 nM in experiment [2].

Turning to `CC(C)(C)OC(=O)N[C@H](Cc1ccc(NC(=O)c2cccc(NC(=N)N)c2)cc1)C(=O)O` [Example 57, 4-[[[3-[(aminoiminomethyl)amino]phenyl]carbonyl]amino]-N-[(1,1-dimethylethoxy)carbonyl]-D-phenylalanine, monohydrate trifluoroacetate salt], the half-inhibitory concentration (IC50) in experiment [1] (setting [3]) was found to be 14.5 nM; in experiment [2] it was 318 nM.

`CC(C)OC(=O)NC(Cc1ccc(NC(=O)c2cccc(NC(N)=NC(N)=O)c2)cc1)C(=O)O` (stereo not drawn) [Example 105, 4-[[[3-[[amino[(aminocarbonyl)imino]methyl]-amino]phenyl]carbonyl]amino]-N-[(1-methylethoxy]carbonyl]phenylalanine, bis(trifluoroacetate) salt]: the IC50 in experiment [1] (setting [3]) stood at 2 nM; in experiment [2], 267 nM.

Take `N=C(N)Nc1cccc(C(=O)Nc2ccc(CC(NC(=O)N3CCOCC3)C(=O)O)cc2)c1` (stereo not drawn) [Example 125, 4-[[[3-[(aminoiminomethyl)amino]phenyl]carbonyl]-amino]-N-[(4-morpholinyl)carbonyl]phenylalanine, bis(trifluoroacetate) salt, monohydrate]: the values for the IC50 in experiment [1] (setting [3]) and in experiment [2] were 7 nM and 260 nM, respectively.

Regarding `CCOC(=O)C(CC(=O)O)c1ccc(NC(=O)c2cccc(NC(=N)N)c2)cc1` (stereo not drawn) [Example 71, 1-ethyl hydrogen[4-[[[3-[(aminoiminomethyl)amino]phenyl]carbonyl]amino]-phenyl]butanedioate, trifluoroacetate salt], the values for the IC50 in experiment [1] (setting [3]) and in experiment [2] were 38.7 nM and 8.3 nM, respectively.

Consider `COc1cc(NC(=O)c2cccc(NC(=N)N)c2)ccc1CCC(=O)O` [Example 115, 4-[[[3-(aminoiminomethyl)amino]phenyl]-carbonyl]amino]-2-methoxybenzenepropanoic acid, trifluoroacetate salt], for which the IC50 in experiment [1] (setting [3]) was 24 nM; in experiment [2] it was 173 nM.

With `Cc1cc(C)c(S(=O)(=O)NC(Cc2ccc(NC(=O)c3cccc(NC(=N)N)c3)cc2)C(=O)O)c(C)c1` (stereo not drawn) [Example 121, trifluoroacetate salt], the half-maximal inhibitory concentration (IC50) came out at 1 nM in experiment [1] (setting [4]) and 2 nM in experiment [2].

`CC(C)OC(=O)NC(Cc1ccc(NC(=O)c2cccc(Nc3n[nH]c(N)n3)c2)cc1)C(=O)O` (racemic) [Example 103, (±) 4-[[[3-[3-amino-1H-1,2,4-triazol-5-yl)amino]-phenyl]carbonyl]amino]-N-[(1-methylethoxy) carbonyl]phenylalanine, trifluoroacetate salt]: the IC50 in experiment [1] (setting [3]) is 269 nM; in experiment [2], 3660 nM.

Take `CCOC(=O)CCc1ccc(CNC(=O)c2cccc(C#N)c2)cc1` [Example 12, ethyl 4-[[[[3-(cyano)phenyl]-carbonyl]amino]methyl]benzenepropanoate]: the 50% inhibitory concentration (IC50) in experiment [1] (setting [3]) is more than 100000 nM; in experiment [2], 69200 nM.

In general, IC50 refers to the concentration needed to halve the response being measured.

The values are drawn from EP1157985A1 (G.D. SEARLE & CO., priority 1996, dated 1997).
